From ChEMBL document CHEMBL1155650, “New oleanene triterpenoid saponins from Madhuca longifolia” (J Nat Prod, 2000)
The source made the active and inactive calls. No cut-off for these calls is given here.

Species: Homo sapiens
Test: Cytotoxicity against human Kato 3 cells
Type: functional, cell-based
For `CC1(C)CC[C@]2(C(=O)O[C@@H]3OC[C@H](O)[C@H](O)[C@H]3O)CC[C@]3(C)C(=CC[C@@H]4[C@@]5(C)CC(=O)[C@H](O)[C@@](C)(CO)[C@@H]5[C@H](O)C[C@]43C)[C@@H]2C1`, the Activity was “inactive”.
For `CC1(C)CC[C@]2(C(=O)O[C@@H]3OC[C@H](O)[C@H](O)[C@H]3O)CC[C@]3(C)C(=CC[C@@H]4[C@@]5(C)C[C@H](O)[C@H](O)[C@@](C)(CO)[C@@H]5[C@H](O)C[C@]43C)[C@@H]2C1`, the Activity was “inactive”.
With `C[C@@H]1O[C@@H](O[C@H]2[C@H](OC(=O)[C@]34CCC(C)(C)C[C@H]3C3=CC[C@@H]5[C@@]6(C)C[C@H](O)[C@H](O)[C@@](C)(CO)[C@@H]6[C@H](O)C[C@@]5(C)[C@]3(C)CC4)OC[C@H](O)[C@@H]2O)[C@H](O)[C@H](O)[C@H]1O` the Activity was “inactive”.
In the case of `CC1(C)CC[C@]2(C(=O)O[C@@H]3OC[C@H](O)[C@H](O)[C@H]3O)CC[C@]3(C)C(=CC[C@@H]4[C@@]5(C)CC(=O)[C@H](O[C@@H]6O[C@H](CO)[C@@H](O)[C@H](O)[C@H]6O)[C@@](C)(CO)[C@@H]5[C@H](O)C[C@]43C)[C@@H]2C1`, the Activity is reported as “inactive”.
